Tests used:
Experiment in all cases: ER mutation analysis, ERE-TK-Luc reporter in transfected MDA-MB-231 cells
Format in all cases: cell-based
ER Ile326Ala = target: T1, ER Ile326Ala (Homo sapiens, UniProt P03372, I326A); conditions: MDA-MB-231 transfected with mutant ER, E2 10 nM, 24 hr
T1 construct: expressed in transfected cells; host or cells: MDA-MB-231
Source text: (§1) B., C. Panels B and C show a comparison of the ER interaction of one of our original series of compounds (A7) (B) and one new compounds (48693-K/1) (C). ER is represented by gray ribbon and its residues interacting with the compounds are drawn with wireframe and labeled. […] The hydrogen bond interaction with ARG 394 is shown in green line. […] The cells were harvested for luciferase assays. Luciferase values are expressed as a percent of the +E2 vehicle control and are means ± SEMs of four wells. The data shown in panels D to G are representative of three independent experiments.
(§2) Subconfluent cells in 24-well dishes were transfected overnight with 0.25 μg of each indicated vector plus the ERE-TK-Luc reporter in serum-free DMEM containing Lipofectamine2000 (Life Technologies, Washington, DC). Total transfected DNA was kept constant by addition of control vector. The cells were washed, incubated in phenol red-free DMEM containing 5% charcoal-stripped serum (obtained from the Tissue Culture Shared Resource) (0.2 ml/well) ± E2 (10 nM) ± the indicated compound for 24-hr, and harvested for luciferase assays. For each assay condition was tested in quadrupicate. To monitor the transfection efficiency, cultures were co-transfected with plasmid pRSV-β-gal (Promega, Madison, WI) to visualize transfected cells by X-gal staining.

ER His356Ala = target: T2, ER His356Ala (Homo sapiens, UniProt P03372, H356A); conditions: MDA-MB-231 transfected with mutant ER, E2 10 nM, 24 hr
T2 construct: expressed in transfected cells; host or cells: MDA-MB-231
Source text: as §1, §2

ER Leu327Ala = target: T3, ER Leu327Ala (Homo sapiens, UniProt P03372, L327A); conditions: MDA-MB-231 transfected with mutant ER, E2 10 nM, 24 hr
T3 construct: expressed in transfected cells; host or cells: MDA-MB-231
Source text: as §1, §2

ER Trp393Ala = target: T4, ER Trp393Ala (Homo sapiens, UniProt P03372, W393A); conditions: MDA-MB-231 transfected with mutant ER, E2 10 nM, 24 hr
T4 construct: expressed in transfected cells; host or cells: MDA-MB-231
Source text: as §1, §2

Wild-type ER = target: T5, Wild-type ER (Homo sapiens, UniProt P03372); conditions: MDA-MB-231 transfected with wtER, E2 10 nM, 24 hr
T5 construct: expressed in transfected cells; host or cells: MDA-MB-231
Source text: as §1, §2

ER Ile386Ala = target: T6, ER Ile386Ala (Homo sapiens, UniProt P03372, I386A); conditions: MDA-MB-231 transfected with mutant ER, E2 10 nM, 24 hr
T6 construct: expressed in transfected cells; host or cells: MDA-MB-231
Source text: as §1, §2

ER Arg394Ala = target: T7, ER Arg394Ala (Homo sapiens, UniProt P03372, R394A); conditions: MDA-MB-231 transfected with mutant ER, E2 10 nM, 24 hr
T7 construct: expressed in transfected cells; host or cells: MDA-MB-231
Source text: as §1, §2

ER Leu387Ala = target: T8, ER Leu387Ala (Homo sapiens, UniProt P03372, L387A); conditions: MDA-MB-231 transfected with mutant ER, E2 10 nM, 24 hr
T8 construct: expressed in transfected cells; host or cells: MDA-MB-231
Source text: as §1, §2

T4 sequence (P03372 whole entry W393A): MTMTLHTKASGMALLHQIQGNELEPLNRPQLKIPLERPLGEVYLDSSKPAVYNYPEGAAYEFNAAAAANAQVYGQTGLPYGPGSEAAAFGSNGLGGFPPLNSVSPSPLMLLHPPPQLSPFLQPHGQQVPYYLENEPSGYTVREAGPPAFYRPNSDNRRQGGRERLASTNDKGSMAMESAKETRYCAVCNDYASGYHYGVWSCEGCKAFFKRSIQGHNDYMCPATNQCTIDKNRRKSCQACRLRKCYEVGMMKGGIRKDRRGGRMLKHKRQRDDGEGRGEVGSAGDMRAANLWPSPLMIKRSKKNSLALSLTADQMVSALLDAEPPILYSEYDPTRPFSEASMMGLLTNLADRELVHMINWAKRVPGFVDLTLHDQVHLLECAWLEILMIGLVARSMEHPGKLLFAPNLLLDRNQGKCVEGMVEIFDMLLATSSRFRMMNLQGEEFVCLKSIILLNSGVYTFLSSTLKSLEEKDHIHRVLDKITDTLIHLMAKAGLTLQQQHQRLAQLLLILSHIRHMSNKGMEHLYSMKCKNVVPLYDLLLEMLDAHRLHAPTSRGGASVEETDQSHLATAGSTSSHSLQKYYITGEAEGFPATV
T3 sequence (P03372 whole entry L327A): as the sequence (P03372 whole entry W393A) above, with L327A, A393W counted along it
T6 sequence (P03372 whole entry I386A): as the sequence (P03372 whole entry W393A) above, with I386A, A393W counted along it
T8 sequence (P03372 whole entry L387A): as the sequence (P03372 whole entry W393A) above, with L387A, A393W counted along it
T2 sequence (P03372 whole entry H356A): as the sequence (P03372 whole entry W393A) above, with H356A, A393W counted along it
T1 sequence (P03372 whole entry I326A): as the sequence (P03372 whole entry W393A) above, with I326A, A393W counted along it
T5 sequence (P03372 whole entry): as the sequence (P03372 whole entry W393A) above, with A393W counted along it
T7 sequence (P03372 whole entry R394A): as the sequence (P03372 whole entry W393A) above, with A393W, R394A counted along it

SMILES: O=C(CC(c1ccccc1)N1CCCCC1)c1ccccc1 (centres unmarked) [35446-L/1, 1,3-diphenyl-3-(piperidin-1-yl)propan-1-one]
- IC50 (ER Ile326Ala): 4 µM
- IC50 (ER His356Ala): 0.8 µM
- IC50 (ER Leu327Ala): 0.9 µM
- IC50 (ER Trp393Ala): > 15 µM
- IC50 (Wild-type ER): 0.8 µM
- IC50 (ER Ile386Ala): 4 µM
- IC50 (ER Arg394Ala): > 15 µM
- IC50 (ER Leu387Ala): 5 µM

— PMC4747340, “A new class of small molecule estrogen receptor-alpha antagonists that overcome anti-estrogen resistance” (Oncotarget, 2015)
